Data as given in ChEMBL document CHEMBL1127942, “Phenol based tripeptide inhibitors of ras farnesyl protein transferase” (Bioorg Med Chem Lett, 1994).

Biological target: Protein farnesyltransferase (Homo sapiens, UniProt P49354+P49356)
Assay: Inhibition of Protein farnesyltransferase (FPT)
Assay type: protein-complex assay
Details: read-out: I50

IC50 [µM] | SMILES
> 360 | CC(C)C[C@H](NC(=O)[C@@H](NC(=O)c1cccc(OCc2ccccc2)c1)C(C)C)C(=O)N[C@@H](CO)C(=O)O
166 | CC(C)C[C@H](NC(=O)[C@@H](NC(=O)c1ccc(OCc2ccccc2)cc1)C(C)C)C(=O)N[C@@H](CO)C(=O)O
> 360 | CC(C)C[C@H](NC(=O)[C@@H](NC(=O)c1cccc(OCc2ccccc2)c1O)C(C)C)C(=O)N[C@@H](CO)C(=O)O
157 | CC(C)C[C@H](NC(=O)[C@@H](NC(=O)c1cccc(O)c1OCc1ccccc1)C(C)C)C(=O)N[C@@H](CO)C(=O)O
63 | CC(C)C[C@H](NC(=O)[C@@H](NC(=O)c1ccccc1OCc1ccccc1)C(C)C)C(=O)N[C@@H](CO)C(=O)O

Continued, compound first:

SMILES | IC50 [µM]
CC(C)C[C@H](NC(=O)[C@@H](NC(=O)c1ccc(O)cc1)C(C)C)C(=O)N[C@@H](CO)C(=O)O | > 360
CC(C)C[C@H](NC(=O)[C@@H](NC(=O)[C@@H](N)CO)C(C)C)C(=O)N[C@@H](CO)C(=O)O | > 360
CC(C)C[C@H](NC(=O)[C@@H](NC(=O)CCS)C(C)C)C(=O)N[C@@H](CO)C(=O)O | 1
CC(C)C[C@H](NC(=O)[C@@H](NC(=O)c1ccccc1O)C(C)C)C(=O)N[C@@H](CO)C(=O)O | > 360
CC(C)C[C@H](NC(=O)[C@@H](NC(=O)c1cccc(O)c1)C(C)C)C(=O)N[C@@H](CO)C(=O)O | 29
CC(C)C[C@H](NC(=O)[C@@H](NC(=O)c1cc(O)ccc1OCc1ccccc1)C(C)C)C(=O)N[C@@H](CO)C(=O)O | 137
